# Laboratory results as given in patent publication US20230085307A1, “PYRIDAZINONE COMPOUND AND HERBICIDE” (NISSAN CHEMICAL CORPORATION, priority 2019, published 2023).
# How the values were obtained:
# barnyard grass [1] = test: Test Example 3: herbicidal effect by foliage application, Wagner pot (Table 18, symbol H); format: in vivo, barnyard grass (Echinochloa crus-galli)
# Summary of the method: (§1)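 Plants were sown in alluvial soil held under 0.1–0.5 cm standing water and grown 14 days in a greenhouse at 25–30 °C. An emulsifiable formulation, water-diluted to the set dose, was then sprayed onto the foliage, and effects were scored three weeks later using previously defined criteria.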
# Chinese sprangletop = test: Test Example 3: herbicidal effect by foliage application, Wagner pot (Table 18, symbol D); format: in vivo, chinese sprangletop (Leptochloa chinensis)
# Summary of the method: as §1
# rice flat sedge = test: Test Example 3: herbicidal effect by foliage application, Wagner pot (Table 18, symbol E); format: in vivo, rice flat sedge (Cyperus iria)
# Summary of the method: as §1
# southern crabgrass [2] = test: Test Example 4: herbicidal effect by soil treatment (Table 19, symbol F); format: in vivo, southern crabgrass (Digitaria ciliaris); settings: amount of applied herbicide 320 g/ha
# Summary of the method: (§2)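 In this soil treatment, the formulated compound reached the seeds only through the soil: seeds were buried about 1.5 cm deep in sterilized diluvial soil, then the diluted emulsion was sprayed over the surface. After three weeks at 25° C. to 30° C. in a greenhouse, effects were graded on criteria from an earlier test.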
# green foxtail [3] = test: Test Example 4: herbicidal effect by soil treatment (Table 19, symbol G); format: in vivo, green foxtail (Setaria viridis); settings: amount of applied herbicide 320 g/ha
# Summary of the method: as §2
# barnyard grass [4] = test: Test Example 4: herbicidal effect by soil treatment (Table 19, symbol H); format: in vivo, barnyard grass (Echinochloa crus-galli); settings: amount of applied herbicide 320 g/ha
# Summary of the method: as §2
# wild oat [5] = test: Test Example 4: herbicidal effect by soil treatment (Table 19, symbol I); format: in vivo, wild oat (Avena fatua); settings: amount of applied herbicide 320 g/ha
# Summary of the method: as §2
# blackgrass [6] = test: Test Example 4: herbicidal effect by soil treatment (Table 19, symbol J); format: in vivo, blackgrass (Alopecurus myosuroides); settings: amount of applied herbicide 320 g/ha
# Summary of the method: as §2
# Italian ryegrass [7] = test: Test Example 4: herbicidal effect by soil treatment (Table 19, symbol K); format: in vivo, Italian ryegrass (Lolium multiflorum); settings: amount of applied herbicide 320 g/ha
# Summary of the method: as §2
# windgrass [8] = test: Test Example 4: herbicidal effect by soil treatment (Table 19, symbol L); format: in vivo, windgrass (Apera spica-venti); settings: amount of applied herbicide 320 g/ha
# Summary of the method: as §2
# velvetleaf [9] = test: Test Example 4: herbicidal effect by soil treatment (Table 19, symbol M); format: in vivo, velvetleaf (Abutilon theophrasti); settings: amount of applied herbicide 320 g/ha
# Summary of the method: as §2
# redroot pigweed [10] = test: Test Example 4: herbicidal effect by soil treatment (Table 19, symbol N); format: in vivo, redroot pigweed (Amaranthus retroflexus); settings: amount of applied herbicide 320 g/ha
# Summary of the method: as §2
# lambsquarters [11] = test: Test Example 4: herbicidal effect by soil treatment (Table 19, symbol O); format: in vivo, lambsquarters (Chenopodium album); settings: amount of applied herbicide 320 g/ha
# Summary of the method: as §2
# chickweed [12] = test: Test Example 4: herbicidal effect by soil treatment (Table 19, symbol P); format: in vivo, common chickweed (Stellaria media); settings: amount of applied herbicide 320 g/ha
# Summary of the method: as §2
# false cleavers = test: Test Example 4: herbicidal effect by soil treatment (Table 19, symbol Q); format: in vivo, false cleavers (Galium spurium); settings: amount of applied herbicide 320 g/ha
# Summary of the method: as §2
# persian speedwell [13] = test: Test Example 4: herbicidal effect by soil treatment (Table 19, symbol R); format: in vivo, Persian speedwell (Veronica persica); settings: amount of applied herbicide 320 g/ha
# Summary of the method: as §2
# southern crabgrass [14] = test: Test Example 5: herbicidal effect by foliage application, plastic box (Table 20, symbol F); format: in vivo, southern crabgrass (Digitaria ciliaris); settings: foliage application, 320 g/ha
# Summary of the method: (§3)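 Plants were sown into sterilized diluvial soil under about 1.5 cm cover and kept in a greenhouse at 25° C. to 30° C. Fourteen days on, foliage received an even spray of the diluted emulsion. Herbicidal or crop effect was judged three weeks afterwards.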
# green foxtail [15] = test: Test Example 5: herbicidal effect by foliage application, plastic box (Table 20, symbol G); format: in vivo, green foxtail (Setaria viridis); settings: foliage application, 320 g/ha
# Summary of the method: as §3
# barnyard grass [16] = test: Test Example 5: herbicidal effect by foliage application, plastic box (Table 20, symbol H); format: in vivo, barnyard grass (Echinochloa crus-galli); settings: foliage application, 320 g/ha
# Summary of the method: as §3
# wild oat [17] = test: Test Example 5: herbicidal effect by foliage application, plastic box (Table 20, symbol I); format: in vivo, wild oat (Avena fatua); settings: foliage application, 320 g/ha
# Summary of the method: as §3
# blackgrass [18] = test: Test Example 5: herbicidal effect by foliage application, plastic box (Table 20, symbol J); format: in vivo, blackgrass (Alopecurus myosuroides); settings: foliage application, 320 g/ha
# Summary of the method: as §3
# Italian ryegrass [19] = test: Test Example 5: herbicidal effect by foliage application, plastic box (Table 20, symbol K); format: in vivo, Italian ryegrass (Lolium multiflorum); settings: foliage application, 320 g/ha
# Summary of the method: as §3
# windgrass [20] = test: Test Example 5: herbicidal effect by foliage application, plastic box (Table 20, symbol L); format: in vivo, windgrass (Apera spica-venti); settings: foliage application, 320 g/ha
# Summary of the method: as §3
# velvetleaf [21] = test: Test Example 5: herbicidal effect by foliage application, plastic box (Table 20, symbol M); format: in vivo, velvetleaf (Abutilon theophrasti); settings: foliage application, 320 g/ha
# Summary of the method: as §3
# redroot pigweed [22] = test: Test Example 5: herbicidal effect by foliage application, plastic box (Table 20, symbol N); format: in vivo, redroot pigweed (Amaranthus retroflexus); settings: foliage application, 320 g/ha
# Summary of the method: as §3
# lambsquarters [23] = test: Test Example 5: herbicidal effect by foliage application, plastic box (Table 20, symbol O); format: in vivo, lambsquarters (Chenopodium album); settings: foliage application, 320 g/ha
# Summary of the method: as §3
# chickweed [24] = test: Test Example 5: herbicidal effect by foliage application, plastic box (Table 20, symbol P); format: in vivo, common chickweed (Stellaria media); settings: foliage application, 320 g/ha
# Summary of the method: as §3
# persian speedwell [25] = test: Test Example 5: herbicidal effect by foliage application, plastic box (Table 20, symbol R); format: in vivo, Persian speedwell (Veronica persica); settings: foliage application, 320 g/ha
# Summary of the method: as §3
# [26] = amount of applied herbicide 320 g/ha
# [27] = evaluated three weeks after application
compound,measurement,setting,value
CCCC(=O)Oc1c(C)nn(C)c(=O)c1-c1c(-c2ccc(F)cc2SC)sc2ccccc12 [1-064],"herbicidal effect on H (barnyard grass), rating 0-5",barnyard grass [1]; 320 g/ha,3 (Herbicidal rate of 40% or more and less than 70%)
same,"herbicidal effect on D (Chinese sprangletop), rating 0-5",Chinese sprangletop; 320 g/ha,0 (Herbicidal rate of 5% or less (almost no effect))
same,"herbicidal effect on E (rice flat sedge), rating 0-5",rice flat sedge; 320 g/ha,3 (Herbicidal rate of 40% or more and less than 70%)
same,"herbicidal effect rating, F: southern crabgrass",southern crabgrass [2],0 (Herbicidal rate of 5% or less (almost no effect))
same,"herbicidal effect rating, G: green foxtail",green foxtail [3],0 (Herbicidal rate of 5% or less (almost no effect))
same,"herbicidal effect rating, H: barnyard grass",barnyard grass [4],0 (Herbicidal rate of 5% or less (almost no effect))
same,"herbicidal effect rating, I: wild oat",wild oat [5],0 (Herbicidal rate of 5% or less (almost no effect))
same,"herbicidal effect rating, J: blackgrass",blackgrass [6],0 (Herbicidal rate of 5% or less (almost no effect))
same,"herbicidal effect rating, K: Italian ryegrass",Italian ryegrass [7],0 (Herbicidal rate of 5% or less (almost no effect))
same,"herbicidal effect rating, L: windgrass",windgrass [8],0 (Herbicidal rate of 5% or less (almost no effect))
same,"herbicidal effect rating, M: velvetleaf",velvetleaf [9],0 (Herbicidal rate of 5% or less (almost no effect))
same,"herbicidal effect rating, N: redroot pigweed",redroot pigweed [10],0 (Herbicidal rate of 5% or less (almost no effect))
same,"herbicidal effect rating, O: lambsquarters",lambsquarters [11],0 (Herbicidal rate of 5% or less (almost no effect))
same,"herbicidal effect rating, P: chickweed",chickweed [12],3 (Herbicidal rate of 40% or more and less than 70%)
same,"herbicidal effect rating, Q: false cleavers",false cleavers,0 (Herbicidal rate of 5% or less (almost no effect))
same,"herbicidal effect rating, R: persian speedwell",persian speedwell [13],0 (Herbicidal rate of 5% or less (almost no effect))
same,"herbicidal effect grade, F: southern crabgrass",southern crabgrass [14]; three weeks after application,0 (Herbicidal rate of 5% or less (almost no effect))
same,"herbicidal effect grade, G: green foxtail",green foxtail [15]; three weeks after application,0 (Herbicidal rate of 5% or less (almost no effect))
same,"herbicidal effect grade, H: barnyard grass",barnyard grass [16]; three weeks after application,0 (Herbicidal rate of 5% or less (almost no effect))
same,"herbicidal effect grade, I: wild oat",wild oat [17]; three weeks after application,0 (Herbicidal rate of 5% or less (almost no effect))
same,"herbicidal effect grade, J: blackgrass",blackgrass [18]; three weeks after application,0 (Herbicidal rate of 5% or less (almost no effect))
same,"herbicidal effect grade, K: Italian ryegrass",Italian ryegrass [19]; three weeks after application,0 (Herbicidal rate of 5% or less (almost no effect))
same,"herbicidal effect grade, L: windgrass",windgrass [20]; three weeks after application,0 (Herbicidal rate of 5% or less (almost no effect))
same,"herbicidal effect grade, M: velvetleaf",velvetleaf [21]; three weeks after application,0 (Herbicidal rate of 5% or less (almost no effect))
same,"herbicidal effect grade, N: redroot pigweed",redroot pigweed [22]; three weeks after application,0 (Herbicidal rate of 5% or less (almost no effect))
same,"herbicidal effect grade, O: lambsquarters",lambsquarters [23]; three weeks after application,0 (Herbicidal rate of 5% or less (almost no effect))
same,"herbicidal effect grade, P: chickweed",chickweed [24]; three weeks after application,4 (Herbicidal rate of 70% or more and less than 90%)
same,"herbicidal effect grade, R: persian speedwell",persian speedwell [25]; three weeks after application,0 (Herbicidal rate of 5% or less (almost no effect))
CCSc1cccc(-c2sc3ccc(F)cc3c2-c2c(O)c(C)nn(C)c2=O)c1 [2-242],herbicidal effect on H: barnyard grass,barnyard grass [1]; [26],3 (Herbicidal rate of 40% or more and less than 70%)
same,herbicidal effect on D: Chinese sprangletop,Chinese sprangletop; [26],0 (Herbicidal rate of 5% or less (almost no effect))
same,herbicidal effect on E: rice flat sedge,rice flat sedge; [26],2 (Herbicidal rate of 20% or more and less than 40%)
same,herbicidal effect on F: southern crabgrass,southern crabgrass [2],0 (Herbicidal rate of 5% or less (almost no effect))
same,herbicidal effect on G: green foxtail,green foxtail [3],0 (Herbicidal rate of 5% or less (almost no effect))
same,herbicidal effect on H: barnyard grass,barnyard grass [4],0 (Herbicidal rate of 5% or less (almost no effect))
same,herbicidal effect on I: wild oat,wild oat [5],0 (Herbicidal rate of 5% or less (almost no effect))
same,herbicidal effect on J: blackgrass,blackgrass [6],0 (Herbicidal rate of 5% or less (almost no effect))
same,herbicidal effect on K: Italian ryegrass,Italian ryegrass [7],0 (Herbicidal rate of 5% or less (almost no effect))
same,herbicidal effect on L: windgrass,windgrass [8],0 (Herbicidal rate of 5% or less (almost no effect))
same,herbicidal effect on M: velvetleaf,velvetleaf [9],0 (Herbicidal rate of 5% or less (almost no effect))
same,herbicidal effect on N: redroot pigweed,redroot pigweed [10],2 (Herbicidal rate of 20% or more and less than 40%)
same,herbicidal effect on O: lambsquarters,lambsquarters [11],1 (Herbicidal rate of 5% or more and less than 20%)
same,herbicidal effect on P: chickweed,chickweed [12],1 (Herbicidal rate of 5% or more and less than 20%)
same,herbicidal effect on Q: false cleavers,false cleavers,0 (Herbicidal rate of 5% or less (almost no effect))
same,herbicidal effect on R: persian speedwell,persian speedwell [13],4 (Herbicidal rate of 70% or more and less than 90%)
same,herbicidal effect on F: southern crabgrass (criteria 0-5),southern crabgrass [14]; [27],3 (Herbicidal rate of 40% or more and less than 70%)
same,herbicidal effect on G: green foxtail (criteria 0-5),green foxtail [15]; [27],3 (Herbicidal rate of 40% or more and less than 70%)
same,herbicidal effect on H: barnyard grass (criteria 0-5),barnyard grass [16]; [27],1 (Herbicidal rate of 5% or more and less than 20%)
same,herbicidal effect on I: wild oat (criteria 0-5),wild oat [17]; [27],4 (Herbicidal rate of 70% or more and less than 90%)
same,herbicidal effect on J: blackgrass (criteria 0-5),blackgrass [18]; [27],0 (Herbicidal rate of 5% or less (almost no effect))
same,herbicidal effect on K: Italian ryegrass (criteria 0-5),Italian ryegrass [19]; [27],1 (Herbicidal rate of 5% or more and less than 20%)
same,herbicidal effect on L: windgrass (criteria 0-5),windgrass [20]; [27],4 (Herbicidal rate of 70% or more and less than 90%)
same,herbicidal effect on M: velvetleaf (criteria 0-5),velvetleaf [21]; [27],3 (Herbicidal rate of 40% or more and less than 70%)
same,herbicidal effect on N: redroot pigweed (criteria 0-5),redroot pigweed [22]; [27],4 (Herbicidal rate of 70% or more and less than 90%)
same,herbicidal effect on O: lambsquarters (criteria 0-5),lambsquarters [23]; [27],3 (Herbicidal rate of 40% or more and less than 70%)
same,herbicidal effect on P: chickweed (criteria 0-5),chickweed [24]; [27],5 (Herbicidal rate of 90% or more (almost completely withered))
same,herbicidal effect on R: persian speedwell (criteria 0-5),persian speedwell [25]; [27],5 (Herbicidal rate of 90% or more (almost completely withered))
